Measurements taken from paper PMC5668240, “Fragment-based screening identifies novel targets for inhibitors of conjugative transfer of antimicrobial resistance by plasmid pKM101” (Scientific Reports, 2017).

Experiments:
[1] = test system: conjugative transfer of plasmid pKM101; experiment: Conjugation assay, pKM101-carrying donor FM433 and plasmid-free recipient WL400; type: cell-based; details: 50 μM, 2.5% DMSO
Procedure: Quantitation of conjugative DNA transfer was performed as described previously. For analysis of the inhibition of conjugation by fragments or small molecules, the cells were cultivated on agar and in liquid media in the presence of 50 μM of the small molecules in the presence of 2.5% DMSO.

[2] = target: T1, purified periplasmic domain of TraE (plasmid pKM101) (Escherichia coli, UniProt Q17U16); experiment: Binding to TraE by fluorescence quenching (intrinsic UV fluorescence); details: 20 °C, 20 mM HEPES, 50 mM NaCl, pH 7.4; single site saturation fit
T1 sequence (Q17U16 entry or part of it): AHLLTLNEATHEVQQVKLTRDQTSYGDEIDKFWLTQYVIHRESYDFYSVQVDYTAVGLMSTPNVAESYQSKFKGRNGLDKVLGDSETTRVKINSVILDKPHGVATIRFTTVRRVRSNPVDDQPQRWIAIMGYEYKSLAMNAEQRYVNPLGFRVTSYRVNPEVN
Procedure: Protein overexpression and purification was performed as described previously. The TraE buffer was changed to 20 mM HEPES, 50 mM NaCl, pH 7.4. TraE protein concentrations were determined using the molar extinction coefficient at 280 nm of 25 900 M^−1 cm^−1.
Changes of the intrinsic UV fluorescence emission of TraE upon binding of fragments and small molecules were recorded at 20 °C with a Cary Eclipse Fluorometer (Varian) (λex 295 nm, λem 340 nm, 5 nm excitation and emission slit widths) in 20 mM HEPES, 50 mM NaCl, pH 7.4. The spectra were corrected for dilution effects and KD values were calculated from the ligand binding fluorescence data fitted to a single site saturation curve with constant background using the Grafit 6.0 software package.

[3] = test system: purified periplasmic domain of TraE; experiment: In vitro DSS cross-linking assay of TraE dimerization; type: biochemical; details: 0–1.6 mM molecule, normalized to control without small molecules
Procedure: Chemical crosslinking with disuccinimidyl suberate (DSS, Pierce) was performed as described previously[13] and the formation of crosslinking products was quantified by SDS-PAGE and using the ImageLab Software 4.0 (Bio-Rad).

[4] = target: T1, purified periplasmic domain of TraE (plasmid pKM101); experiment: Differential scanning fluorimetry (DSF) thermal shift of TraE; type: binding; details: 5 mM fragment or small molecule, 5 μM protein; hit when ΔTm higher than 1 °C
Procedure: A library of 505 fragments was used in this study of which 186 were previously described[14] and the others are listed in Supplementary Table 3. DSF experiments were performed as described previously. DSF was conducted using 5 μM of protein, 10X concentration of SYPRO Orange (from 5000X stock solution, ThermoFisher) in 20 mM HEPES, 50 mM NaCl, pH 7.4 and 5% final concentration of DMSO. For fragment-based screening and molecule optimization, fragments or small molecules were added to final concentrations of 5 mM. SYPRO Orange fluorescence was monitored over 20–95 °C with a LightCycler® 480 instrument (Roche, USA). The LightCycler® 480 Software (Roche) was used to calculate the first derivate of the resulting melting curve, with the steepest point of the slope being the Tm. Fragments were considered to be hits when ΔTm was higher than 1 °C, which is two times higher than the standard deviation of the DMSO control.

Row | Compound | Effect on conjugative transfer of pKM101 [1] | Kd [2] [µM] | Effect on formation of DSS-dependent cross-linking products of TraE (dimerization) [3] | Effect on thermal melting point of TraE (DSF) [4]
1 | 2-chloroisonicotinic acid [4H10] | no effect on conjugation | 32 ± 1.8 | – | –
2 | O=C(O)c1ccco1 [1E6, 2-furoic acid] | no effect on conjugation | 23 ± 1.9 | – | –
3 | O=C(O)c1cc(-n2cccc2)ccn1 [compound 105055, 4-(1H-pyrrol-1-yl)pyridine-2-carboxylic acid] | significantly reduce conjugative DNA transfer | 9.3 ± 0.4 | significantly inhibit cross-linking | stabilized the protein
4 | O=C(O)c1ccnc(-c2ccco2)c1 [compound 239852, 2-(2-furyl)isonicotinic acid] | significantly reduce conjugative DNA transfer | 19.6 ± 1.2 | significantly inhibit cross-linking | stabilized the protein
